From the NIST ThermoML archive (doi:10.1021/je034218n)
Numbers after ± are expanded uncertainties.

Details: Liquid, vibrating tube

COCCOCCO [2-(2-methoxyethoxy)ethanol]
mass density [kg/m3]
Details | 100 kPa | 1000 kPa | 2500 kPa | 5000 kPa | 7500 kPa | 10000 kPa | 15000 kPa | 20000 kPa | 25000 kPa
283.15 K | 1028.5 ± 0.5 | 1029 ± 0.5 | 1029.8 ± 0.5 | 1031.2 ± 0.5 | 1032.5 ± 0.5 | 1033.9 ± 0.5 | 1036.4 ± 0.5 | 1039 ± 0.5 | 1041.4 ± 0.5
293.15 K | 1019.5 ± 0.5 | 1020 ± 0.5 | 1020.9 ± 0.5 | 1022.3 ± 0.5 | 1023.7 ± 0.5 | 1025.2 ± 0.5 | 1027.9 ± 0.5 | 1030.5 ± 0.5 | 1033.1 ± 0.5
303.15 K | 1010.8 ± 0.5 | 1011.3 ± 0.5 | 1012.2 ± 0.5 | 1013.6 ± 0.5 | 1015 ± 0.5 | 1016.4 ± 0.5 | 1019.3 ± 0.5 | 1022.1 ± 0.5 | 1024.8 ± 0.5
313.15 K | 1002 ± 0.5 | 1002.6 ± 0.5 | 1003.5 ± 0.5 | 1005.1 ± 0.5 | 1006.7 ± 0.5 | 1008.2 ± 0.5 | 1011.2 ± 0.5 | 1014.1 ± 0.5 | 1016.9 ± 0.5
323.15 K | 993.2 ± 0.5 | 993.9 ± 0.5 | 994.9 ± 0.5 | 996.6 ± 0.5 | 998.3 ± 0.5 | 1000 ± 0.5 | 1003.2 ± 0.5 | 1006.2 ± 0.5 | 1009.2 ± 0.5
333.15 K | 983.9 ± 0.5 | 984.6 ± 0.5 | 985.6 ± 0.5 | 987.4 ± 0.5 | 989.1 ± 0.5 | 990.8 ± 0.5 | 994.1 ± 0.5 | 997.2 ± 0.5 | 1000.2 ± 0.5
343.15 K | 975.2 ± 0.5 | 975.8 ± 0.5 | 977 ± 0.5 | 978.8 ± 0.5 | 980.6 ± 0.5 | 982.4 ± 0.5 | 985.9 ± 0.5 | 989.2 ± 0.5 | 992.4 ± 0.5
353.15 K | 965.7 ± 0.5 | 966.4 ± 0.5 | 967.6 ± 0.5 | 969.5 ± 0.5 | 971.4 ± 0.5 | 973.3 ± 0.5 | 976.9 ± 0.5 | 980.4 ± 0.5 | 983.7 ± 0.5

CCOCCOCCO [3,6-dioxa-1-octanol]
mass density [kg/m3]
Details | 100 kPa | 1000 kPa | 2500 kPa | 5000 kPa | 7500 kPa | 10000 kPa | 15000 kPa | 20000 kPa | 25000 kPa
283.15 K | 997.7 ± 0.5 | 998.2 ± 0.5 | 999.1 ± 0.5 | 1000.6 ± 0.5 | 1002 ± 0.5 | 1003.4 ± 0.5 | 1006.1 ± 0.5 | 1008.8 ± 0.5 | 1011.3 ± 0.5
293.15 K | 988.4 ± 0.5 | 988.9 ± 0.5 | 989.8 ± 0.5 | 991.3 ± 0.5 | 992.8 ± 0.5 | 994.3 ± 0.5 | 997.2 ± 0.5 | 999.9 ± 0.5 | 1002.6 ± 0.5
303.15 K | 979.5 ± 0.5 | 980.1 ± 0.5 | 981.1 ± 0.5 | 982.6 ± 0.5 | 984.2 ± 0.5 | 985.8 ± 0.5 | 988.8 ± 0.5 | 991.7 ± 0.5 | 994.6 ± 0.5
313.15 K | 970.6 ± 0.5 | 971.2 ± 0.5 | 972.2 ± 0.5 | 973.9 ± 0.5 | 975.5 ± 0.5 | 977.1 ± 0.5 | 980.3 ± 0.5 | 983.4 ± 0.5 | 986.3 ± 0.5
323.15 K | 961.5 ± 0.5 | 962.1 ± 0.5 | 963.2 ± 0.5 | 965 ± 0.5 | 966.8 ± 0.5 | 968.5 ± 0.5 | 971.9 ± 0.5 | 975.1 ± 0.5 | 978.2 ± 0.5
333.15 K | 952.4 ± 0.5 | 953.1 ± 0.5 | 954.3 ± 0.5 | 956.1 ± 0.5 | 958 ± 0.5 | 959.7 ± 0.5 | 963.2 ± 0.5 | 966.5 ± 0.5 | 969.8 ± 0.5
343.15 K | 943.4 ± 0.5 | 944.1 ± 0.5 | 945.3 ± 0.5 | 947.3 ± 0.5 | 949.2 ± 0.5 | 951.1 ± 0.5 | 954.8 ± 0.5 | 958.3 ± 0.5 | 961.6 ± 0.5
353.15 K | 934.1 ± 0.5 | 934.9 ± 0.5 | 936.1 ± 0.5 | 938.2 ± 0.5 | 940.2 ± 0.5 | 942.2 ± 0.5 | 946 ± 0.5 | 949.7 ± 0.5 | 953.2 ± 0.5
